Results: the NIST ThermoML archive (doi:10.1016/j.tca.2016.06.022)

Test: xn = mol fraction of the nth substance listed
Settings: 101 kPa, Liquid, Vibrating tube method

NCCN [ethane-1,2-diamine] + O
Settings	mass density [kg/m3]
274.15 K, x1 = 0.002	999.81
274.15 K, x1 = 0.0033	999.71
274.15 K, x1 = 0.0047	999.62
274.15 K, x1 = 0.0072	999.47
274.15 K, x1 = 0.009	999.38
274.15 K, x1 = 0.0123	999.18
274.15 K, x1 = 0.0222	998.88
274.15 K, x1 = 0.0436	999.22
274.15 K, x1 = 0.0609	1000.11
274.15 K, x1 = 0.0827	1002.02
275.15 K, x1 = 0.002	999.85
275.15 K, x1 = 0.0033	999.74
275.15 K, x1 = 0.0047	999.65
275.15 K, x1 = 0.0072	999.48
275.15 K, x1 = 0.009	999.37
275.15 K, x1 = 0.0123	999.18
275.15 K, x1 = 0.0222	998.82
275.15 K, x1 = 0.0436	999.08
275.15 K, x1 = 0.0609	999.93
275.15 K, x1 = 0.0827	1001.75
276.15 K, x1 = 0.002	999.87
276.15 K, x1 = 0.0033	999.75
276.15 K, x1 = 0.0047	999.66
276.15 K, x1 = 0.0072	999.48
276.15 K, x1 = 0.009	999.37
276.15 K, x1 = 0.0123	999.16
276.15 K, x1 = 0.0222	998.79
276.15 K, x1 = 0.0436	998.93
276.15 K, x1 = 0.0609	999.69
276.15 K, x1 = 0.0827	1001.43
277.15 K, x1 = 0.002	999.87
277.15 K, x1 = 0.0033	999.75
277.15 K, x1 = 0.0047	999.65
277.15 K, x1 = 0.0072	999.47
277.15 K, x1 = 0.009	999.35
277.15 K, x1 = 0.0123	999.12
277.15 K, x1 = 0.0222	998.71
277.15 K, x1 = 0.0436	998.76
277.15 K, x1 = 0.0609	999.54
277.15 K, x1 = 0.0827	1001.13
278.15 K, x1 = 0.002	999.85
278.15 K, x1 = 0.0033	999.73
278.15 K, x1 = 0.0047	999.62
278.15 K, x1 = 0.0072	999.43
278.15 K, x1 = 0.009	999.3
278.15 K, x1 = 0.0123	999.07
278.15 K, x1 = 0.0222	998.62
278.15 K, x1 = 0.0436	998.59
278.15 K, x1 = 0.0609	999.31
278.15 K, x1 = 0.0827	1000.79
278.15 K, x1 = 0.106	1002.72
278.15 K, x1 = 0.1481	1006.44
278.15 K, x1 = 0.2063	1009.32
278.15 K, x1 = 0.2513	1008.93
278.15 K, x1 = 0.3148	1002.73
278.15 K, x1 = 0.3258	1002.11
278.15 K, x1 = 0.3316	1001.85
278.15 K, x1 = 0.341	1001.4
278.15 K, x1 = 0.4038	992.34
278.15 K, x1 = 0.4489	985.23
278.15 K, x1 = 0.4928	977.8
278.15 K, x1 = 0.5468	968.88
278.15 K, x1 = 0.5907	961.76
278.15 K, x1 = 0.6361	954.59
278.15 K, x1 = 0.6843	947.87
278.15 K, x1 = 0.7386	940.37
278.15 K, x1 = 0.7954	933.17
278.15 K, x1 = 0.81	931.24
278.15 K, x1 = 0.8505	926.49
278.15 K, x1 = 0.898	921.18
278.15 K, x1 = 0.9282	917.97
278.15 K, x1 = 0.9584	914.9
278.15 K, x1 = 0.9678	913.98
279.15 K, x1 = 0.002	999.82
279.15 K, x1 = 0.0033	999.7
279.15 K, x1 = 0.0047	999.59
279.15 K, x1 = 0.0072	999.38
279.15 K, x1 = 0.009	999.26
279.15 K, x1 = 0.0123	999.01
279.15 K, x1 = 0.0222	998.54
279.15 K, x1 = 0.0436	998.41
279.15 K, x1 = 0.0609	999.05
279.15 K, x1 = 0.0827	1000.47
280.15 K, x1 = 0.002	999.78
280.15 K, x1 = 0.0033	999.65
280.15 K, x1 = 0.0047	999.54
280.15 K, x1 = 0.0072	999.33
280.15 K, x1 = 0.009	999.2
280.15 K, x1 = 0.0123	998.93
280.15 K, x1 = 0.0222	998.41
280.15 K, x1 = 0.0436	998.21
280.15 K, x1 = 0.0609	998.8
280.15 K, x1 = 0.0827	1000.14
281.15 K, x1 = 0.002	999.72
281.15 K, x1 = 0.0033	999.59
281.15 K, x1 = 0.0047	999.47
281.15 K, x1 = 0.0072	999.25
281.15 K, x1 = 0.009	999.12
281.15 K, x1 = 0.0123	998.84
281.15 K, x1 = 0.0222	998.29
281.15 K, x1 = 0.0436	998.03
281.15 K, x1 = 0.0609	998.53
281.15 K, x1 = 0.0827	999.78
282.15 K, x1 = 0.002	999.65
282.15 K, x1 = 0.0033	999.52
282.15 K, x1 = 0.0047	999.39
282.15 K, x1 = 0.0072	999.17
282.15 K, x1 = 0.009	999.04
282.15 K, x1 = 0.0123	998.74
282.15 K, x1 = 0.0222	998.17
282.15 K, x1 = 0.0436	997.81
282.15 K, x1 = 0.0609	998.25
282.15 K, x1 = 0.0827	999.43
283.15 K, x1 = 0.002	999.56
283.15 K, x1 = 0.0033	999.43
283.15 K, x1 = 0.0047	999.3
283.15 K, x1 = 0.0072	999.07
283.15 K, x1 = 0.009	998.92
283.15 K, x1 = 0.0123	998.62
283.15 K, x1 = 0.0222	998.01
283.15 K, x1 = 0.0436	997.6
283.15 K, x1 = 0.0609	997.98
283.15 K, x1 = 0.0827	999.09
288.15 K, x1 = 0.002	998.94
288.15 K, x1 = 0.0033	998.79
288.15 K, x1 = 0.0047	998.64
288.15 K, x1 = 0.0072	998.38
288.15 K, x1 = 0.009	998.21
288.15 K, x1 = 0.0123	997.87
288.15 K, x1 = 0.0222	997.12
288.15 K, x1 = 0.0436	996.36
288.15 K, x1 = 0.0609	996.47
288.15 K, x1 = 0.0827	997.2
288.15 K, x1 = 0.106	998.37
288.15 K, x1 = 0.1481	1000.83
288.15 K, x1 = 0.2063	1002.48
288.15 K, x1 = 0.2513	1001.08
288.15 K, x1 = 0.3148	995
288.15 K, x1 = 0.3316	993.72
288.15 K, x1 = 0.341	992.78
288.15 K, x1 = 0.4038	983.69
288.15 K, x1 = 0.4489	976.15
288.15 K, x1 = 0.4928	968.71
288.15 K, x1 = 0.5468	959.92
288.15 K, x1 = 0.5907	952.42
